From PMC7827406, “Structure–Activity Relationship (SAR) Study of Spautin-1 to Entail the Discovery of Novel NEK4 Inhibitors” (International Journal of Molecular Sciences, 2021) come the findings set out here.

SMILES strings stand for the structures. Like-named read-outs stand apart in the source and are kept apart here.

Holding throughout (assay): biochemical
Holding throughout (parameters): Eurofins KinaseProfiler full panel at Km ATP, residual kinase activity (%) relative to DMSO

Assay [1] deals with CDK7/cyclinH/MAT1(h) (Homo sapiens, UniProt P50613). The procedure, abridged: (§1)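 Compounds screened at 10 µM in radiometric kinase activity assays at Km ATP, reported as remaining kinase activity (%). A KINOMEscan competition-binding screen at 10 µM measured DNA-tagged kinase retained on immobilized active-site ligand by qPCR.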
Sequence of CDK7/cyclinH/MAT1(h) (P50613 whole entry): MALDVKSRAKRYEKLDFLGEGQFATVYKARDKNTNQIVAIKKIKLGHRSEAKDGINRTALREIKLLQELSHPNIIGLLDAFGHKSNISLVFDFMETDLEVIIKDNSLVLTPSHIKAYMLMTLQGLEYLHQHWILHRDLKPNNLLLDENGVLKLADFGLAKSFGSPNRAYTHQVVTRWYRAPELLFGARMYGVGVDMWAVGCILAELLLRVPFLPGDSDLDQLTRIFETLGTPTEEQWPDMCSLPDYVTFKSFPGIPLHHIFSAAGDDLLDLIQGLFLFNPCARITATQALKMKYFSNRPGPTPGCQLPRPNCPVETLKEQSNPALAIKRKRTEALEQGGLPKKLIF
Sequence of CDK7/cyclinH/MAT1(h) (P51946 whole entry partner): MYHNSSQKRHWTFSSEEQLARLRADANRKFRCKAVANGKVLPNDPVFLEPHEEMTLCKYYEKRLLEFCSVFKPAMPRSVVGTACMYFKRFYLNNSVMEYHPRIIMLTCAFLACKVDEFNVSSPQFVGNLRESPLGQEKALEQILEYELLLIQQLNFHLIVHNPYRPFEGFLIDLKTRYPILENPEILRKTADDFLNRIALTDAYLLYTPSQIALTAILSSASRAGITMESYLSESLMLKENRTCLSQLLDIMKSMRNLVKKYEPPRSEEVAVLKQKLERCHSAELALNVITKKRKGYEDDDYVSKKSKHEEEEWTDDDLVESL
Sequence of CDK7/cyclinH/MAT1(h) (P51948 whole entry partner): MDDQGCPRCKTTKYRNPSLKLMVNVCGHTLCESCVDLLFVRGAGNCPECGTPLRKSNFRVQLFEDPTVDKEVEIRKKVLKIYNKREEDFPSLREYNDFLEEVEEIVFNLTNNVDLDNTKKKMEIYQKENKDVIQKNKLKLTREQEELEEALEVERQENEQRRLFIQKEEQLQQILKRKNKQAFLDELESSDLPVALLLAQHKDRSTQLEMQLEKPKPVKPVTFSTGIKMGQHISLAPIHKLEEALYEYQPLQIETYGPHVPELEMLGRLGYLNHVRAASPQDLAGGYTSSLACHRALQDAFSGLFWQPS
For assay [2], the target named is T1, Ron(h) (Homo sapiens, UniProt Q04912).
T1 construct: gene MST1R
T1 sequence (Q04912 whole entry): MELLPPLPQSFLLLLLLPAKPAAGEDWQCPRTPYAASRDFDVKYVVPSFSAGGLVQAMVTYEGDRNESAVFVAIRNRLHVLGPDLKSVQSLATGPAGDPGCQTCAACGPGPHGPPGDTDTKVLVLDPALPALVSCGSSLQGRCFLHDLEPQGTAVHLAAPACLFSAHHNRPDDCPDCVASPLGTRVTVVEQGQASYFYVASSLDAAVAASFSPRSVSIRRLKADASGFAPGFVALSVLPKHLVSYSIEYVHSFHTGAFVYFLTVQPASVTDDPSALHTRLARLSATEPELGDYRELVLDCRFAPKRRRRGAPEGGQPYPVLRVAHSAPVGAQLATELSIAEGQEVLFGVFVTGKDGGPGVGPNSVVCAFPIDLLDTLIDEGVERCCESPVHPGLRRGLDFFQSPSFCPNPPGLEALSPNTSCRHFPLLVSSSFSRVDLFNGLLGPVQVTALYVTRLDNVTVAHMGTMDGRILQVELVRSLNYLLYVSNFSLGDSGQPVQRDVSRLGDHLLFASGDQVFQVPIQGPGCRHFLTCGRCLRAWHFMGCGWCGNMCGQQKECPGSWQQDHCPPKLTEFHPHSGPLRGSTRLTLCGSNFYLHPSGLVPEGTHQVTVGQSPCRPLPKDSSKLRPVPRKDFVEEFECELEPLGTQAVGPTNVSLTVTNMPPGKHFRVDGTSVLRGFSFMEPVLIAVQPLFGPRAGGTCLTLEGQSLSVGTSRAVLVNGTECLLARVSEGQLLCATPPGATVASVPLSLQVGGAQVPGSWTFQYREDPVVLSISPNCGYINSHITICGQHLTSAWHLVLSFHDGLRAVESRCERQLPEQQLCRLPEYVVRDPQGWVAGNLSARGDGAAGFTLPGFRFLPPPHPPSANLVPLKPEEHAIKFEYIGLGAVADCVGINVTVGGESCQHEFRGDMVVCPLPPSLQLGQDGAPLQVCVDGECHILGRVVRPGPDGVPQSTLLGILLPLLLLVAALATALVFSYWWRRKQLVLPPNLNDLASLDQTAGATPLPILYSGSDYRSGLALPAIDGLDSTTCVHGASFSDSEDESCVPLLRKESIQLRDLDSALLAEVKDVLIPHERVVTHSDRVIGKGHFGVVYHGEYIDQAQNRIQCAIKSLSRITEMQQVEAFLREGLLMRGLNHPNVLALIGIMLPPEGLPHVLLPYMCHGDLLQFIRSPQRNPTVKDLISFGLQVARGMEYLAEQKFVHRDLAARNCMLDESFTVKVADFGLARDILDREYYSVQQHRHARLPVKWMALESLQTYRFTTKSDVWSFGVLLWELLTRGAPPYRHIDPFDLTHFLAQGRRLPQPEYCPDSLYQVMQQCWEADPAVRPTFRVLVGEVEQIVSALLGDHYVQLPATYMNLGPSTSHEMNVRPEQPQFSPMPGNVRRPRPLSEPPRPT
The procedure, abridged:
as §1

Assay [3] deals with MARK1(h) (Homo sapiens, UniProt Q9P0L2). The procedure, abridged: as §1
Sequence of MARK1(h) (Q9P0L2 whole entry): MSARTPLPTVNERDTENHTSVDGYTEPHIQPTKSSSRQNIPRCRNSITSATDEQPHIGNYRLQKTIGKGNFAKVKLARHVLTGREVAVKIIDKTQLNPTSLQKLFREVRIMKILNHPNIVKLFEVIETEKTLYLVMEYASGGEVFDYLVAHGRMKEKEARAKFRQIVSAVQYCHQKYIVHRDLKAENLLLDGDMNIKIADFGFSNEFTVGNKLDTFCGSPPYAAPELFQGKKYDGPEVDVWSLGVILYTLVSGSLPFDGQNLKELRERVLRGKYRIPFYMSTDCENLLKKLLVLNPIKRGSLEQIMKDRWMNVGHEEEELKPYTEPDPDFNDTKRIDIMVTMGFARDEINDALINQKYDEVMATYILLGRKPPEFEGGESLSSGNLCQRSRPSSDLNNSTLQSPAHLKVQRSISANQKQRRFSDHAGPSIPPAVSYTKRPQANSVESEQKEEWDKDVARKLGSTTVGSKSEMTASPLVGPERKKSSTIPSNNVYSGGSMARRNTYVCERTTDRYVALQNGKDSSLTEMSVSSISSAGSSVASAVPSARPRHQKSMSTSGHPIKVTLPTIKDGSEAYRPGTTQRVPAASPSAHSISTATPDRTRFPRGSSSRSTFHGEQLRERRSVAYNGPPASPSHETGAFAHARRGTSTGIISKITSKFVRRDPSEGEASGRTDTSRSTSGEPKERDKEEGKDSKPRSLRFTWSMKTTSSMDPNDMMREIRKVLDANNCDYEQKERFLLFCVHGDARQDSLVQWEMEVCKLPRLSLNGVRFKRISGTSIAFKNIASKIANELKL
In assay [4] the target is T2, LATS2(h) (Homo sapiens, UniProt Q9NRM7).
T2 sequence (Q9NRM7 1-1088): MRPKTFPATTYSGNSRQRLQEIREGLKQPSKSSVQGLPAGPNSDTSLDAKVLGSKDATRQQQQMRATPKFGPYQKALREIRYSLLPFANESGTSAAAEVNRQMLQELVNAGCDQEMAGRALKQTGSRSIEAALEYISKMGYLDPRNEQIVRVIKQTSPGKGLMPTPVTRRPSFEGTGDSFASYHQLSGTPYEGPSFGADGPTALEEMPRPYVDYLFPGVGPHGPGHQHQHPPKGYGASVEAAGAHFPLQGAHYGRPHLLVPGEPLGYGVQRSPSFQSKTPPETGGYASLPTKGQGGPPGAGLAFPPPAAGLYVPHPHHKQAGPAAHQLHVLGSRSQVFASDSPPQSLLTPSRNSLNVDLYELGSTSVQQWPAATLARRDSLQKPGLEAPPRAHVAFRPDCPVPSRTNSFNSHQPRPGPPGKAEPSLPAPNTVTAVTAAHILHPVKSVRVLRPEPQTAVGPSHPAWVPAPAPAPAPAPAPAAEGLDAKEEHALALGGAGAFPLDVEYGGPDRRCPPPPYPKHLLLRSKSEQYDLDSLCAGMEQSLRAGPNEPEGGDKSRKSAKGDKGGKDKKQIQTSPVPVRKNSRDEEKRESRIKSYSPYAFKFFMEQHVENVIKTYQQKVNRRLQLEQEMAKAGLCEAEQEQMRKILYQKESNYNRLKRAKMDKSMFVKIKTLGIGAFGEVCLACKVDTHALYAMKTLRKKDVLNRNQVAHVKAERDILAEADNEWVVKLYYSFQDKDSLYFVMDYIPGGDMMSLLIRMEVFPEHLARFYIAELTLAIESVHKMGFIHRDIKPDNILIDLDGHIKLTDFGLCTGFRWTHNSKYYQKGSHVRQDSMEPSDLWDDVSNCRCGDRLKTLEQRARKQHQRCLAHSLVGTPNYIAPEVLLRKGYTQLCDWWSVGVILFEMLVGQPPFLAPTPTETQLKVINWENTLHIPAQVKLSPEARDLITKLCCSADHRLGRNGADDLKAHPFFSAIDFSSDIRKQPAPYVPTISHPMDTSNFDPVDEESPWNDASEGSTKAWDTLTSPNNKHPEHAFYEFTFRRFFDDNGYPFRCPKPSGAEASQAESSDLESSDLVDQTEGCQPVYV
The procedure, abridged: as §1

In assay [5] the target is T3, Itk(h) (Homo sapiens, UniProt Q08881).
T3 sequence (Q08881 1-620): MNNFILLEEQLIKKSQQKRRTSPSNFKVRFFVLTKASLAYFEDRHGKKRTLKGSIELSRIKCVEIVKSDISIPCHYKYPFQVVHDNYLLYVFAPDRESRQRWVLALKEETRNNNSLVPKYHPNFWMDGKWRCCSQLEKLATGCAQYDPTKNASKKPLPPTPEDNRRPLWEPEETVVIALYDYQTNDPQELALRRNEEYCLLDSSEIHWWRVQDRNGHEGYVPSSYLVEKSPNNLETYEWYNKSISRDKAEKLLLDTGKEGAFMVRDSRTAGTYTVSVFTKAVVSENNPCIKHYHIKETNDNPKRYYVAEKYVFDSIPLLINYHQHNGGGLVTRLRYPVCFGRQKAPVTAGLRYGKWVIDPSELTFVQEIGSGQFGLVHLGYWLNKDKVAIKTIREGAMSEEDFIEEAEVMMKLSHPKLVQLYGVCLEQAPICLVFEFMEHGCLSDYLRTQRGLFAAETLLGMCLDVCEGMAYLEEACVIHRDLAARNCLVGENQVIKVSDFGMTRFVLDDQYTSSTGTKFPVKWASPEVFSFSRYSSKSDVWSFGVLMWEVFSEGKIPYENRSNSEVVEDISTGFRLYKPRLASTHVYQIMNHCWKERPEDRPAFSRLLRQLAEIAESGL
The procedure, abridged:
as §1

For assay [6], the target named is PAK4(h) (Homo sapiens, UniProt O96013). The procedure, abridged:
as §1

Assay [7] has as its target T4, CK1γ1(h) (Homo sapiens, UniProt Q9HCP0).
T4 construct: gene CSNK1G1
The procedure, abridged: as §1

Where [8] appears, read: read-out: Residual activity (%) Spautin-1 5aa.
[9] abbreviates: read-out: Residual activity (%) 5as.
Setting [10] is: read-out: Residual activity (%) 5at.
Setting [11] is: read-out: Residual activity (%) 5ay.

T4 sequence (Q9HCP0 whole entry): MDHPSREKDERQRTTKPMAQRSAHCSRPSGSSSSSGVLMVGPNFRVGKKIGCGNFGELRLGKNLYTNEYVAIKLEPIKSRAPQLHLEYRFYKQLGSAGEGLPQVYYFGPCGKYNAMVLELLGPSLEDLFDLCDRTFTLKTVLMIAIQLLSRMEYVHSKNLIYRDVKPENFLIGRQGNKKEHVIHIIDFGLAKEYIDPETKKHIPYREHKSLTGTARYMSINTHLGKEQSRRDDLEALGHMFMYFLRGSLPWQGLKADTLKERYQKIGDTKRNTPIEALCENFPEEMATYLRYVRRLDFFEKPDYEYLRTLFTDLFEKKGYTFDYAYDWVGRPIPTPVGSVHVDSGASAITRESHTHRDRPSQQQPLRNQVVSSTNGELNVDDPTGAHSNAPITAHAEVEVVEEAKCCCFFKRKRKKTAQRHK
Sequence of PAK4(h) (O96013 whole entry): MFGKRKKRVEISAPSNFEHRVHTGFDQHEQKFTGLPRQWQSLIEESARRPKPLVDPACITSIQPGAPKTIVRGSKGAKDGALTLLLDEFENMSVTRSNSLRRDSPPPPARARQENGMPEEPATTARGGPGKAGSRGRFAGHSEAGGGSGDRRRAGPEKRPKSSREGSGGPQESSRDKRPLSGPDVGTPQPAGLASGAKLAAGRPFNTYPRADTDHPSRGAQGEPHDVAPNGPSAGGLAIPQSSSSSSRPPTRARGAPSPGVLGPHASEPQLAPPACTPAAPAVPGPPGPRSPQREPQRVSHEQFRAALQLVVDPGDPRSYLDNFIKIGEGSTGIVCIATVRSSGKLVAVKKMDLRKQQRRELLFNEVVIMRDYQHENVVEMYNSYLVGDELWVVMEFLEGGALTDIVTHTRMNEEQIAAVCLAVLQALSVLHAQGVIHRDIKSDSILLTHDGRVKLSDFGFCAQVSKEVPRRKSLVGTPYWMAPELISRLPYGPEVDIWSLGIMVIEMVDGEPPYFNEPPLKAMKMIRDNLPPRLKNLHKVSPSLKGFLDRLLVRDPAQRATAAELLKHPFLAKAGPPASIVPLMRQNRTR

`Fc1ccc(CNc2ncnc3ccc(F)cc23)cc1` [5aa, 6-Fluoro-N-(4-fluorobenzyl)-4-Quinazolinamine]: the remaining activity at 10 µM came out at 62% in assay [1] (setting [8]); 98% in assay [2] (setting [8]); 89% in assay [3] (setting [8]); 94% in assay [4] (setting [8]); 117% in assay [5] (setting [8]); 90% in assay [6] (setting [8]). Besides, in assay [7] (setting [8]), the remaining activity at 10 µM was determined as 99%.
With `Fc1ccc(CCNc2ncnc3ccc(F)cc23)cc1` [5as, 6-Fluoro-N-[2-(4-Fluorophenyl)Ethyl]-4-Quinazolinamine], the remaining activity at 10 µM in assay [1] (setting [9]) stood at 49%; in assay [2] (setting [9]) it was 109%; in assay [3] (setting [9]), 96%; in assay [4] (setting [9]) it was 74%; in assay [5] (setting [9]) it was 97%; in assay [6] (setting [9]) it was 92%. The remaining activity at 10 µM in assay [7] (setting [9]) was found to be 80%.
As for `Fc1ccc2ncnc(NCCc3ccc(Cl)cc3)c2c1` [5at, N-[2-(4-Chlorophenyl)Ethyl]-6-Fluoro-4-Quinazolinamine], the remaining activity at 10 µM worked out at 59% in assay [1] (setting [10]); 101% in assay [2] (setting [10]); 82% in assay [3] (setting [10]); 75% in assay [4] (setting [10]); 103% in assay [5] (setting [10]); 90% in assay [6] (setting [10]). Besides, in assay [7] (setting [10]), the remaining activity at 10 µM amounted to 80%.
With `COc1ccc2ncnc(Nc3cccc(F)c3)c2c1` [5ay, N-(3-Fluorophenyl)-6-Methoxy-4-Quinazolinamine], the remaining activity at 10 µM in assay [1] (setting [11]) was found to be 58%; in assay [2] (setting [11]) it was 88%; in assay [3] (setting [11]) it was 89%; in assay [4] (setting [11]), 72%; in assay [5] (setting [11]) it was 88%; in assay [6] (setting [11]), 83%. The remaining activity at 10 µM in assay [7] (setting [11]) is 94%.
